Measurements from patent US20120053053A1, “PYRIMIDINE DERIVATIVES AND THEIR USE AS HERBICIDES” (SYNGENTA CROP PROTECTION, LLC, priority 2009, published 2012).

What was measured:
Format in all cases: in vivo
[1] = system: Alopecurus myosuroides (ALOMY); experiment: Pre-emergence biological efficacy (percentage damage); conditions: Alopecurus myosuroides, 312 h, dose 1,000 g/ha, evaluated after 13 days, 100=total damage, 0=no damage
Procedure, shortened: (§1)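 Seeds were sown in standard soil in pots and, one day later, sprayed with test compound at 250 or 1000 g/ha in acetone/water (50:50) with 0.5% Tween 20. Plants grew in a glasshouse at 24/16 °C day/night, 14 h light, 65% humidity; damage was scored after 13 days (0 = none, 100 = total).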

[2] = system: Amaranthus retoflexus (AMARE); experiment: as above; conditions: Amaranthus retroflexus, 312 h, dose 1,000 g/ha, evaluated after 13 days, 100=total damage, 0=no damage
Procedure, shortened: as §1

[3] = system: Echinochloa crus-galli (ECHCG); experiment: as above; conditions: Echinochloa crus-galli, 312 h, dose 1,000 g/ha, evaluated after 13 days, 100=total damage, 0=no damage
Procedure, shortened: as §1

[4] = system: Ipomea hederaceae (IPOHE); experiment: as above; conditions: Ipomoea hederacea, 312 h, dose 1,000 g/ha, evaluated after 13 days, 100=total damage, 0=no damage
Procedure, shortened: as §1

Setaria faberi (SETFA) [5] = experiment: as above; conditions: Setaria faberi, 312 h, dose 1,000 g/ha, evaluated after 13 days, 100=total damage, 0=no damage
Procedure, shortened: as §1

Solanum nigrum (SOLNI) [6] = experiment: as above; conditions: Solanum nigrum, 312 h, dose 1,000 g/ha, evaluated after 13 days, 100=total damage, 0=no damage
Procedure, shortened: as §1

[7] = system: Alopecurus myosuroides (ALOMY); experiment: Post-emergence biological efficacy (percentage damage); conditions: Alopecurus myosuroides, 312 h, dose 1,000 g/ha, evaluated after 13 days, 100=total damage, 0=no damage
Procedure, shortened: (§2)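 Percentage damage (0 no damage to 100 total) was assessed 13 days after spraying plants raised for 8 days in pots. Test compound was applied as an aqueous acetone/water (50:50) spray containing 0.5% Tween 20 to give 250 or 1000 g/ha.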

[8] = system: Amaranthus retoflexus (AMARE); experiment: as above; conditions: Amaranthus retroflexus, 312 h, dose 1,000 g/ha, evaluated after 13 days, 100=total damage, 0=no damage
Procedure, shortened: as §2

[9] = system: Echinochloa crus-galli (ECHCG); experiment: as above; conditions: Echinochloa crus-galli, 312 h, dose 1,000 g/ha, evaluated after 13 days, 100=total damage, 0=no damage
Procedure, shortened: as §2

[10] = system: Ipomea hederaceae (IPOHE); experiment: as above; conditions: Ipomoea hederacea, 312 h, dose 1,000 g/ha, evaluated after 13 days, 100=total damage, 0=no damage
Procedure, shortened: as §2

Setaria faberi (SETFA) [11] = experiment: as above; conditions: Setaria faberi, 312 h, dose 1,000 g/ha, evaluated after 13 days, 100=total damage, 0=no damage
Procedure, shortened: as §2

Solanum nigrum (SOLNI) [12] = experiment: as above; conditions: Solanum nigrum, 312 h, dose 1,000 g/ha, evaluated after 13 days, 100=total damage, 0=no damage
Procedure, shortened: as §2

Row | Structure (SMILES) | pest or weed control at 1000 g/ha [1] [%] | pest or weed control at 1000 g/ha [2] [%] | pest or weed control at 1000 g/ha [3] [%] | pest or weed control at 1000 g/ha [4] [%] | pest or weed control at 1000 g/ha (Setaria faberi (SETFA) [5]) [%] | pest or weed control at 1000 g/ha (Solanum nigrum (SOLNI) [6]) [%] | pest or weed control at 1000 g/ha [7] [%] | pest or weed control at 1000 g/ha [8] [%] | pest or weed control at 1000 g/ha [9] [%] | pest or weed control at 1000 g/ha [10] [%] | pest or weed control at 1000 g/ha (Setaria faberi (SETFA) [11]) [%] | pest or weed control at 1000 g/ha (Solanum nigrum (SOLNI) [12]) [%]
1 | C=Cc1ccc(-c2nc(N)c(C=C)c(C(=O)OC)n2)c(F)c1N(C)C [Compound 64-61, 4-amino-2-(3-dimethylamino-4-ethenyl-2-fluorophenyl)-5-ethenyl-6-methoxycarbonylpyrimidine] | 10 | 30 | 10 | 0 | 10 | 10 | 10 | 100 | 10 | 10 | 30 | 60
2 | C=Cc1c(N)nc(-c2ccc(Cl)c(OC)c2F)nc1C(=O)OC [Compound 27-61, 4-Amino-2-(4-chloro-2-fluoro-3-methoxyphenyl)-5-ethenyl-6-methoxycarbonyl-pyrimidine] | 90 | 100 | 90 | 90 | 90 | 100 | 90 | 100 | 90 | 80 | 100 | 80
3 | C=Cc1c(N)nc(-c2cc(F)c(F)c(F)c2)nc1C(=O)OC [Compound 63-61, 4-Amino-5-ethenyl-6-methoxycarbonyl-2-(3,4,5-trifluorophenyl)-pyrimidine] | 0 | 0 | 0 | 0 | 0 | 0 | 0 | 0 | 0 | 20 | 0 | 20
4 | C=Cc1c(N)nc(SC)nc1C(=O)OC [Compound 62-61, 4-amino-5-ethenyl-6-methoxycarbonyl-2-methylthiopyrimidine] | 0 | 100 | 0 | 100 | 0 | 100 | 0 | 100 | 0 | 90 | 10 | 90
5 | COC(=O)c1nc(-c2ccc(Cl)c(N(C)C)c2F)nc(N)c1C [Compound 33-41] | 10 | 20 | 10 | 0 | 30 | 30 | 30 | 100 | 50 | 10 | 70 | 70
6 | Cc1c(OCC(=O)OC(C)(C)C)nc(C2CC2)nc1OCC(=O)OC(C)(C)C [Compound 2-389, 4,6-bis(t-butoxy-carbonyl-methoxy)-2-cyclo-propyl-5-methyl-pyrimidine] | 0 | 20 | 0 | 0 | 0 | 0 | 0 | 0 | 0 | 20 | 0 | 30
